Experimental data taken from the supplement of paper PMC10307832.

Assays:
Assay in all cases: relative viability (nuclei count vs DMSO), 5 days (fraction); higher = more cells survive
[1] = compound: C#Cc1cccc(Nc2ncnc3cc(OC)c(OCCCCCCC(=O)NO)cc23)c1 [CUDC-101] + CS(=O)(=O)N1CCN(Cc2cc3nc(-c4cccc5[nH]ncc45)nc(N4CCOCC4)c3s2)CC1 [Pictilisib] (partner 1 µM)
Method in brief: (§1)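 Relative viability equals treated-well nuclei counts divided by vehicle-well nuclei counts. Counts came from 4× images of lung cancer cell lines grown in 1536-well plates for 5 days after pin-tool dosing on the day after seeding. Dosing used one drug alone or a fixed anchor-drug dose plus five library-drug doses (not always all listed) in √10 steps, and values are medians of duplicate plates.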

[2] = compound: C1=CC=C2C(=C1)N=C(S2)C(C#N)C3=NC(=NC=C3)NCCC4=CN=CC=C4 + O=C(CCCCCCC(=O)Nc1ccccc1)NO [Vorinostat] (partner 1 µM)
Method in brief: as §1

[3] = compound: COc1cc(N2CCC(N3CCN(C)CC3)CC2)ccc1Nc1ncc(Cl)c(Nc2ccccc2S(=O)(=O)C(C)C)n1 [NVP-TAE684] + COc1cc2c(Oc3ccc(NC(=O)C4(C(=O)Nc5ccc(F)cc5)CC4)cc3F)ccnc2cc1OCCCN1CCOCC1 [Foretinib] (partner 0.25 µM)
Method in brief: as §1

[4] = compound: COc1cc2/c(=N/c3ccc(Br)cc3F)nc[nH]c2cc1OCC1CCN(C)CC1 [Vandetanib] + Cc1cc(Nc2cc(N3CCN(C)CC3)nc(Sc3ccc(NC(=O)C4CC4)cc3)n2)n[nH]1 [Tozasertib] (partner 0.1 µM)
Method in brief: as §1

Cell Line	relative viability ([1]; first compound 0.01 µM)	relative viability ([1]; first compound 0.03162 µM)	relative viability ([1]; first compound 0.1 µM)	relative viability ([1]; first compound 0.3162 µM)	relative viability ([1]; first compound 1 µM)	relative viability ([2]; first compound 0.005 µM)	relative viability ([2]; first compound 0.01581 µM)	relative viability ([2]; first compound 0.05 µM)	relative viability ([2]; first compound 0.1581 µM)	relative viability ([2]; first compound 0.5 µM)	relative viability ([3]; first compound 0.2 µM)	relative viability ([3]; first compound 0.6325 µM)	relative viability ([3]; first compound 2 µM)	relative viability ([4]; first compound 0.02 µM)	relative viability ([4]; first compound 0.06325 µM)	relative viability ([4]; first compound 0.2 µM)	relative viability ([4]; first compound 0.6325 µM)	relative viability ([4]; first compound 2 µM)
NCI-H2405	0.462	0.419	0.642	0.624	0.336	0.82	0.938	0.953	1.15	0.727	1	0.966	0.575	0.754	0.716	0.738	0.685	0.714
NCI-H2087	0.985	1.03	1.11	1.11	0.603	0.338	0.666	0.353	1	0.435	1.05	1.2	0.638	0.252	0.266	0.0945	0.278	0.262
NCI-H2023	0.245	0.223	0.257	0.226	0.151	0.566	1.09	0.454	0.763	0.607	0.656	0.739	0.461	0.436	0.31	0.217	0.298	0.337
NCI-H3122	0.539	0.57	0.692	0.73	0.54	0.923	1.34	0.97	1.05	1.1	0.218	0.274	0.101	0.522	0.36	0.372	0.399	0.4
ChaGo-K-1	1.03	1.04	0.784	0.746	0.568	0.584	0.809	0.702	0.863	0.724	0.943	0.818	0.538	0.2	0.239	0.248	0.212	0.215
NCI-H2347	0.711	0.658	0.794	0.436	0.569	0.578	0.524	0.551	0.72	0.558		1.15	0.521	0.607		0.553	0.563	0.674
NCI-H460	0.375	0.358	0.315	0.453	0.287		0.651	0.721	0.782	0.354	1.2	1.02	0.817	0.399	0.432	0.371	0.391	0.457
HCC-827	1.07	0.53	0.368	0.287	0.262	0.675	0.931	0.838	1.07	0.922	1.16	1.02	0.874	0.442	0.419	0.415	0.243	0.135
HOP-62	0.758	0.696	0.753	0.582	0.4	0.49	0.626	0.453	0.685	0.642	1.21	1.12	1.12	0.42	0.379	0.191	0.384	0.368
NCI-H1792	0.361	0.226	0.28	0.316	0.155													
HCC-15	0.683	0.774	0.713	0.79	0.569	0.959	0.971	0.816	0.851	0.775	1.09	0.951	0.453	0.555	0.416	0.07	0.35	0.347
NCI-H1755	0.406	0.409	0.444	0.41	0.264	0.803	0.88	0.74	0.91	0.713	1.03	0.897	0.761	0.581	0.568	0.648	0.536	0.567
NCI-H23	0.518	0.549	0.457	0.435	0.464		0.504	0.529	0.804	0.627	1.03	0.769	0.356	0.307	0.41	0.144	0.382	0.327
BEN	0.569	0.499	0.601	0.454	0.304	0.496	0.58	0.548	0.643	0.577	0.736	0.509	0.555	0.582	0.464	0.521	0.462	0.452
NCI-H1651	0.55	0.595	0.689	0.605	0.328	0.555	0.538	0.572	0.609	0.559	0.802	0.883	0.774	0.68	0.688	0.14	0.854	0.686
NCI-H2126	0.501	0.545	0.432	0.446	0.315	0.637	0.75	0.701	0.855	0.647	1.13	1.22	0.84	0.814	0.8	0.795	0.745	0.657
EKVX	0.452	0.403	0.412	0.355	0.215	0.506	0.731	0.677	0.821	0.741	0.51	0.806	0.537	0.431	0.424	0.398	0.409	0.27
NCI-H1650	0.57	0.552	0.559	0.446	0.293	0.472	0.597	0.535	0.676	0.439	1.06	1.14	0.556	0.354	0.24	0.146	0.378	0.374
NCI-H1703	0.228	0.252	0.244	0.293	0.299						0.388	0.325	0.331					
NCI-H727	0.412	0.355	0.283	0.286	0.27	1.38	1.08	1.1	1.38	1.37	0.855	0.818	0.38	0.689	0.498	0.504	0.529	0.488
NCI-H838	0.516	0.508	0.683	0.628	0.397	0.751	0.747	0.661	0.707	0.681	0.971	1.05	0.628	0.264	0.273	0.193	0.253	0.229

Cell Line	relative viability ([1]; first compound 0.01 µM)	relative viability ([1]; first compound 0.03162 µM)	relative viability ([1]; first compound 0.1 µM)	relative viability ([1]; first compound 0.3162 µM)	relative viability ([1]; first compound 1 µM)	relative viability ([2]; first compound 0.005 µM)	relative viability ([2]; first compound 0.01581 µM)	relative viability ([2]; first compound 0.05 µM)	relative viability ([2]; first compound 0.1581 µM)	relative viability ([2]; first compound 0.5 µM)	relative viability ([3]; first compound 0.2 µM)	relative viability ([3]; first compound 0.6325 µM)	relative viability ([3]; first compound 2 µM)	relative viability ([4]; first compound 0.02 µM)	relative viability ([4]; first compound 0.06325 µM)	relative viability ([4]; first compound 0.2 µM)	relative viability ([4]; first compound 0.6325 µM)	relative viability ([4]; first compound 2 µM)
NCI-H1944	0.319	0.311	0.32	0.324	0.298	0.638	0.521	0.537	0.558	0.52	0.847	0.929	0.533	0.262	0.265	0.235	0.239	0.243
SK-LU-1	0.703	0.597	0.628	0.427	0.381	0.643	0.859	0.787	0.911	0.685	0.947	0.766	0.469	0.36	0.361	0.133	0.292	0.317
LC-2-ad	0.421	0.601	0.549	0.301	0.104	0.621	0.704	0.676	0.823	0.612	0.936	0.864	0.403	0.471	0.462	0.467	0.45	0.357
LOU-NH91	0.578	0.523	0.564	0.473	0.433	0.907	0.826	0.769	1.03	0.837	0.892	0.92	0.801	0.735	0.635	0.61	0.543	0.526
NCI-H2009	0.813	0.824	0.963	0.917	0.699	0.727	0.677	0.729	0.735	0.738	1.07	1.14	1.09	0.733	0.704	0.419	0.735	0.786
NCI-H647	0.446	0.512	0.576	0.491	0.361	0.427	0.553	0.411	0.661	0.605	1.09	1.21	1.16	0.265	0.2	0.141	0.221	0.255
NCI-H1666	0.395	0.397	0.322	0.394	0.271	0.959	0.922	1.07	1.04	1	0.973	0.899	0.801	0.606	0.581	0.387	0.577	0.633
A-427	0.804	0.656	0.655	0.698	0.614	0.9	0.86	0.811	0.902	0.887	0.952	1.1	0.498	0.215	0.248	0.219	0.155	0.223
EBC-1	0.43	0.325	0.328	0.159	0.0697						0.0925	0.117	0.107					
NCI-H2342						0.621	0.811	0.737	0.776	0.756	1.07	1.06	0.545	0.592	0.552	0.463	0.461	0.493
SW 900						0.495	0.42	0.67	0.693	0.456	0.86	0.802	0.638	0.688	0.417	0.142	0.634	0.609
HCC-44	0.593	0.63	0.531	0.69	0.366	1.19	1.14	1.09	1.15	1.02				0.924	0.851	1.01	1.05	0.949
IA-LM	0.311	0.293	0.322	0.233	0.106	0.742	1.09	1.02	1.11	0.613	1.07	1.07	1.11					
NCI-H522						0.824	0.774	0.875	0.712	0.864				0.588	0.57	0.593	0.621	0.597
NCI-H1299	0.978	0.839	0.766	0.653	0.412						1.16	1.14	1.08					
NCI-H1623											0.865	0.899	0.65	0.431	0.4	0.388	0.41	0.445
NCI-H1563	0.652	0.607	0.709	0.667	0.509						0.914	0.88	0.696					
NCI-H1648							0.448		0.622	0.417				0.515	0.492	0.569	0.657	0.318
A549	0.578	0.489	0.5	0.453	0.288						1.01		0.659					
Calu-6	0.944	0.869	0.929	0.764	0.522							0.878	0.671					
